Measurements published in patent EP3628659A1, “SELENOESTER-CONTAINING COMPOUNDS FOR USE IN THE TREATMENT OF MICROBIAL INFECTIONS OR COLORECTAL CANCER” (Consejo Superior De Investigaciones Científicas, priority 2018, dated 2020).

Tests used:
[1] = system: Colo 320/MDR-LRP multidrug resistant overexpressing ABCB1 (MDR1)-LRP; assay: cells; format: cell-based, human; conditions: for IC50: Homo sapiens, 24 h, read-out: Colo 320 Cytotoxicity; for SI (MRC-5/Colo320): quotient of IC50 in MRC-5 and IC50 in Colo-320
Description: Cytotoxicity assays in human colonic adenocarcinoma cell lines Colo 205 doxorubicin-sensitive (ATCC-CCL-222) and Colo 320/MDR-LRP multidrug resistant overexpressing ABCB1 (MDR1)-LRP (ATCC-CCL-220.1) were performed following the procedure described by Gajdács et al, 2017, Bioorg Med Chem Lett. 27(4): 797-802. The effects of increasing concentrations of selenium compounds on cell growth were tested in 96-well flat-bottomed microtiter plates. The selectivity of the action towards cancer cells was assessed through the evaluation of cytotoxic activity in a non-tumoral cell line, the MRC-5 human embryonal lung fibroblast cell lines (ATCC CCL-171), as described in Gajdács et al, 2017, Bioorg Med Chem Lett. 27(4): 797-802.
All cell lines were purchased from LGC Promochem, Teddington, UK. The colonic cells were cultured in RPMI 1640 medium supplemented with 10% heat-inactivated fetal bovine serum, 2 mM L-glutamine, 1 mM Na-pyruvate and 100 mM Hepes. The cell lines were incubated at 37°C, in a 5% CO2, 95% air atmosphere. The semi-adherent human colon cancer cells were detached with Trypsin-Versene (EDTA) solution for 5 min at 37°C. Alternatively, MRC-5 cells was cultured in Eagle's Minimal Essential Medium (EMEM, containing 4.5 g/L glucose) supplemented with a non-essential amino acid mixture, a selection of vitamins and 10% heat-inactivated fetal bovine serum. The cell lines were incubated at 37°C, in a 5% CO2, 95% air atmosphere.
The compounds were diluted in a volume of 100 µL of medium. The two-fold serial dilutions of selenocompounds were prepared in 100 µL of RPMI 1640, horizontally. The semi-adherent colonic adenocarcinoma cells were treated with Trypsin-Versene (EDTA) solution. They were adjusted to a density of 2×10^4 cells in 100 µL of RPMI 1640 medium, and were added to each well, with the exception of the medium control wells. The final volume of the wells containing selenocompounds and cells was 200 µL.
The culture plates were incubated at 37°C for 24 h; at the end of the incubation period, 20 µL of MTT (thiazolyl blue tetrazolium bromide, Sigma) solution (from a stock solution of 5 mg/mL) were added to each well. After incubation at 37°C for 4 h, 100 µL of sodium dodecyl sulfate (SDS) (Sigma) solution (10% in 0.01 M HCI) were added to each well and the plates were further incubated at 37°C overnight. Cell growth was determined by measuring the optical density (OD) at 540/630 nm with Multiscan EX ELISA reader (Thermo Labsystems, Cheshire, WA, USA). Inhibition of the cell growth was determined according to the formula below: […] = 100−[(OD sample−OD medium control)/(OD cell control−OD medium control)] × 100 [formula]
Results are expressed in terms of IC50, defined as the inhibitory dose that reduces the growth of the cells exposed to the tested compounds by 50%. Regarding the selectivity, the selectivity indexes (SI) were calculate, being SI the quotient of the IC50 in non-tumoral cells (MRC-5) and the respective cancer cell (Colo-205 or Colo-320). Compound is considered moderately selective when SI < 6 and ≥ 3; and strongly selective when SI ≥ 6.

Escherichia coli AG100 = assay: MIC determination (CLSI), E. coli AG100; format: cell-based; conditions: MIC class
Description: (§1) The effects exerted by different concentrations of the compounds on bacterial growth in Staphylococcus aureus 25923 ATCC, Staphylococcus aureus multidrug resistant 272123 clinical isolate (MRSA), Escherichia coli AG100 or Escherichia coli AG100 A were tested in 96-well plates. The MIC of selenocompounds was determined according to Clinical and Laboratory Standard Institute (CLSI) guidelines. The solvent used (DMSO) had no antibacterial effect. Alternatively, the MICs of oxacillin of the compounds in MRSA HEMSA 5 were determined by a broth microdilution method in cation-adjusted Mueller-Hinton Broth (MHB II) according to the recommendations of the CLSI. Results were recorded after a 20- or 24-hour incubation at 37°C.

Escherichia coli AG100 A = assay: MIC determination (CLSI), E. coli AG100 A; format: cell-based; conditions: MIC class
Description: as §1

Steinernema feltiae = assay: Nematicidal activity (viability count), Steinernema feltiae; format: in vivo; conditions: IC50 class, tested at 50, 100, 150 and 200 µM, viability at 24 h
Description: The compounds were tested for their antifungal and nematicidal properties against the fungi Candida albicans and Saccharomyces cerevisiae, and against the nematode Steinernema feltiae.
The soil nematodes S. feltiae were purchased from Sautter and Stepper GmbH (Ammerbuch, Germany) and stored at 4 °C in the dark. Before each experiment, fresh samples of nematodes were purchased and stored in the fridge upon arrival and used for a maximum of six days. To perform the assay, 200 mg of nematodes was reconstituted in 50 mL of phosphate buffered saline (PBS) (pH = 7.4) to form a homogenous suspension to revive the nematodes. Afterwards, the individual suspensions were allowed to rest at room temperature. The sedimentation was avoided with occasional shaking in moderate light and at room temperature (25 °C) for 30 min. Viability of the nematodes was determined by counting the live and dead nematodes under a light microscope (TR 200, VWR International, Leuven, Belgium) at four-fold magnification. An initial viability value of more than 90 percent was considered necessary to perform the experiments.
Sample solutions were added into the wells of a 96-well plate to achieve at final concentrations of 50,100, 150, and 200 µM. Afterwards, 10 µL of nematode suspension was added to each well and the final volume in each well was adjusted to 100 µL with phosphate buffered saline (PBS) (pH = 7.4). PBS was used in the negative control and ethanol in the positive control. Viability was determined at 0 h and 24 h by counting the live and dead nematodes, whereby 50 µL of lukewarm water (40 °C) were added to each well to stimulate the nematodes for the 24 h reading. Each experiment was performed independently in triplicate and on three different occasions (n = 9).
For the three organisms considered (C. albicans, S. cerevisiae and S. feltiae), the inhibitory concentration 50% (IC50) is defined as the concentration that inhibits the viability of the respective organism to a 50% of the viability determined for the negative control.

| SMILES | IC50 [1] | SI (MRC-5/Colo320) [1] | Antibacterial activity Against E. coli AG100 (Escherichia coli AG100) | Antibacterial activity Against E. coli AG100 A (Escherichia coli AG100 A) | IC50 (Steinernema feltiae) |
| --- | --- | --- | --- | --- | --- |
| N#CC[Se]C(=O)c1ccc(C(=O)[Se]CC#N)cc1 [Compound 18, Se,Se-bis-(cyanomethyl) benzene-1,4-bis-(carboselenoate)] | 1 to 10 µM | *** (Strongly selective compounds: SI ≥ 6) | ** (Moderate antibacterial compounds: 10 µM < MIC ≤ 50 µM) | ** (Moderate antibacterial compounds: 10 µM < MIC ≤ 50 µM) | 10 to 50 µM |
| CC(=O)C[Se]C(=O)c1cccc(C(=O)[Se]CC(C)=O)c1 [Compound 23, Se,Se-bis-(2-oxopropyl) benzene-1,3-bis-(carboselenoate)] | < 1 µM | * (Slightly selective compounds: 1 ≤ SI < 3) | ** (Moderate antibacterial compounds: 10 µM < MIC ≤ 50 µM) | ** (Moderate antibacterial compounds: 10 µM < MIC ≤ 50 µM) | > 100 µM |
| CC(=O)C[Se]C(=O)c1ccc(C(=O)[Se]CC(C)=O)cc1 [Compound 22, Se,Se-bis-(2-oxopropyl) benzene-1,4-bis-(carboselenoate)] | < 1 µM | * (Slightly selective compounds: 1 ≤ SI < 3) | ** (Moderate antibacterial compounds: 10 µM < MIC ≤ 50 µM) | ** (Moderate antibacterial compounds: 10 µM < MIC ≤ 50 µM) | 50 to 100 µM |
| CC(=O)C[Se]C(=O)c1cc(C(=O)[Se]CC(C)=O)cc(C(=O)[Se]CC(C)=O)c1 [Compound 24, Se,Se,Se-tris-(2-oxopropyl) benzene-1,3,5-tris-(carboxyselenoate)] | < 1 µM | * (Slightly selective compounds: 1 ≤ SI < 3) | ** (Moderate antibacterial compounds: 10 µM < MIC ≤ 50 µM) | ** (Moderate antibacterial compounds: 10 µM < MIC ≤ 50 µM) | > 100 µM |
| N#CC[Se]C(=O)c1cccc(C(=O)[Se]CC#N)c1 [Compound 19, Se,Se-bis-(cyanomethyl)benzene-1,3-bis-(carboselenoate)] | 1 to 10 µM | *** (Strongly selective compounds: SI ≥ 6) | NA (Not antibacterial compounds: MIC ≥ 100 µM) | NA (Not antibacterial compounds: MIC ≥ 100 µM) | 10 to 50 µM |
| N#CC[Se]C(=O)c1cc(C(=O)[Se]CC#N)cc(C(=O)[Se]CC#N)c1 [Compound 20, Se,Se,Se-tris-(cyanomethyl) benzene-1,3,5-tris-(carboxyselenoate)] | 1 to 10 µM | *** (Strongly selective compounds: SI ≥ 6) | NA (Not antibacterial compounds: MIC ≥ 100 µM) | NA (Not antibacterial compounds: MIC ≥ 100 µM) | > 100 µM |
